From article PMC4519859, “Synthesis and Biological Evaluation of Novel Dehydroabietic Acid Derivatives Conjugated with Acyl-Thiourea Peptide Moiety as Antitumor Agents” (International Journal of Molecular Sciences, 2015)

What was measured:
HeLa = test: MTT cytotoxicity assay, HeLa; assay type: cell-based; conditions: Homo sapiens, 48 h, mean ± SD, three independent experiments
Procedure: (§1) The in vitro cytotoxic potency of DHAA acyl-thiourea derivatives 8a–8o and 9a–9o were evaluated by 3-(4,5-dimethylthiazol-2-yl)-2,5-diphenyltetrazolium bromide (MTT) assay against HeLa, SK-OV-3 and MGC-803 tumor cell lines, with 5-FU as the positive control.
(§2) General procedure for cytotoxic evaluation in vitro: HeLa, HepG2, SK-OV-3 and MGC-803 cells were seeded into 96-well microculture plates and allowed to adhere for 24 h, respectively. After cells were exposed to compounds at concentrations from 100 to 0.01 μM for 48 h, medium was aspirated and replenished with complete medium. IC50 was evaluated by MTT tetrazolium dye assay. Each experiment was performed three times; Statistical analysis: All statistical analysis was performed with SPSS Version 10 (SPSS, Chicago, IL, USA). Data was analyzed by one-way ANOVA. Mean separations were performed using the least significant difference method. Each experiment was replicated thrice, and all experiments yielded similar results. Measurements from all the replicates were combined, and treatment effects were analyzed.

HeLa cells [1] = test: JC-1 mitochondrial membrane potential staining; assay type: cell-based, human; conditions: 10 μM, 12 and 24 h
Excerpt: Apoptosis plays an important role in cancer, since its induction in tumor cells is essential for successful treatment. Mitochondria play key roles in apoptosis through the release of pro-apoptotic factors such as cytochrome c and apoptosis-inducing factor [19, 20]. In order to further investigate the apoptosis-inducing effect of target compound 9n, mitochondrial membrane potential changes were designed and detected, using the fluorescent probe JC-1. […] In the control cells, JC-1 could aggregate in mitochondria and present high red fluorescence. However, in cells undergoing apoptosis, where the mitochondrial potential has collapsed, JC-1 exists in the cytosol as a monomer that emits green fluorescence. HeLa cells treated with compound 9n at 10 μM from 12 to 24 h were stained with JC-1 and cells not treated with the compound 9n were used as control for 24 h. […]
General procedure for mitochondrial membrane potential staining: JC-1 probe was employed to measure mitochondrial depolarization in […]. […] Mitochondrial membrane potentials were monitored by determining the relative amounts of dual emissions from mitochondrial JC-1 monomers or aggregates using an Nikon ECLIPSETE2000-S fluorescent microscope. Mitochondrial depolarization is indicated by an increase in the green/red fluorescence intensity ratio.

HeLa cells [2] = test: AO/EB staining; assay type: cell-based, human; conditions: 10 μM, 12 and 24 h
Procedure: The cytotoxicity of compound 9n at a concentration of 10 μM against HeLa cells from 12 to 24 h was detected by AO/EB staining, and Hela cells not treated with the 9n were used as control for 48 h. […] Also due to the AO uptake, control cells appeared green while 9n treated cells appeared green to intense green as apoptotic cells had much more permeable membranes.
Cells were seeded at a concentration of 5 × 10^4 cell/ mL in a volume of 2 mL on a sterile cover slip in six-well tissue culture plates. Following incubation, the medium was removed and replaced with fresh medium plus 10% fetal bovine serum and supplemented with compound 9n (15 μM). After the treatment period, the cover slip with monolayer cells was inverted on a glass slide with 20 μL of AO/EB stain (100 mg/mL). Fluorescence was read on a slide with 20 μL of AO/EB stain (100 mg/mL) using a Nikon ECLIPSETE2000-S fluorescence microscope ([…], Tokyo, Japan).

SK-OV-3 = test: MTT cytotoxicity assay, SK-OV-3; assay type: cell-based; conditions: Homo sapiens, 48 h, mean ± SD, three independent experiments
Procedure: as §1, §2

HeLa cells [3] = test: Hoechst 33258 staining; assay type: cell-based, human; conditions: 10 μM, 12 and 24 h
Procedure: Hoechst 33258 which stains the cell nucleus, is a membrane permeable dye with blue fluorescence. Live cells with uniformly light blue nuclei were obviously detected under the fluorescence microscope after treatment with Hoechst 33258 whereas apoptotic cells had bright blue nuclei due to karyopyknosis and chromatin condensation. However, the nuclei of dead cells could not be stained. HeLa cells treated with compound 9n at 10 μM from 12 to 24 h were stained with Hoechst 33258. HeLa cells not treated with compound 9n were used as control for 24 h.
General procedure for Hoechst 33258 staining: cells grown on a sterile cover slip in six-well tissue culture plates were treated with compounds for a certain range of time. The culture medium containing compounds was removed, and the cells were fixed in 4% paraformaldehyde for 10 min. After being washed twice with PBS, the cells were stained with 0.5 mL of Hoechst 33258 (Beyotime, Jiangsu, China) for 5 min and then again washed twice with PBS. The stained nuclei were observed under a Nikon ECLIPSETE2000-S fluorescence microscope using 350 nm excitation and 460 nm emission.

HeLa cells [4] = test: TUNEL assay; assay type: cell-based, human; conditions: 10 μM, 12 and 24 h
Procedure: To further define the mechanism of cell death caused by compound 9n, HeLa cells were treated with compound 9n at 10 μM from 12 to 24 h and the DNA fragmentation was measured by the TUNEL assay. TUNEL (terminal-deoxynucleotidyl transferase meditated nick end labeling) is a common method for identifying apoptotic cells in situ by detecting DNA fragmentation. When the genomic DNA is broken, the exposed 3ʹ-OH at the end of deoxynucleotide transfer as the catalytic plus green fluorescent probes fluorescein (FITC) labeled dUTP, which can be detected by fluorescence microscopy or flow cytometry, as indicated by a green color (in the web version). The results are illustrated in Figure 4. […] The results were in good agreement with the previous experiments.
The TUNEL method was performed to label the 3′-end of fragmented DNA of the apoptotic HeLa cells. The cells treated as indicated were fixed with 4% paraformaldehyde phosphate buffer saline, rinsed with PBS, then permeabilized by 0.1% Triton X-100 for FITC end-labeling the fragmented DNA of the apoptotic HeLa cells using TUNEL cell (Beyotime, Jiangsu, China) apoptosis detection kit. The FITC-labeled TUNEL-positive cells were imaged under a fluorescent microscopy by using 488 nm excitation and 530 nm emission.

Compound: CC(C)c1ccc2c(c1)CCC1[C@](C)(C(=O)NC(=S)N[C@H](Cc3ccccc3)C(=O)Nc3ccccn3)CCC[C@]21C (stereo partly drawn) [Compound 9n, (1R,4aS)-7-Isopropyl-1,4a-dimethyl-N-(((R)-1-oxo-3-phenyl-1-(pyridin-2-ylamino)propan-2-yl)carbamothioyl)-1,2,3,4,4a,9,10,10a-octahydrophenanthrene-1-carboxamide]
- IC50 (HeLa): 6.58 ± 1.11 µM
- mitochondrial membrane potential change (JC-1) (HeLa cells [1]): strong green fluorescence
- apoptosis by AO/EB staining (HeLa cells [2]): obvious apoptotic characters
- IC50 (SK-OV-3): 19.6 ± 1.87 µM
- apoptosis by Hoechst 33258 staining (HeLa cells [3]): typical apoptotic morphology
- DNA fragmentation by TUNEL (HeLa cells [4]): significantly induced apoptosis
